What was measured:
CT DNA = assay: Spectrofluorometric binding assay (fluorescence quenching); details: for Kd: CT DNA 10 to 200 µM, 25°C, Scatchard analysis, read-out: dissociation constant (KD)
Description: Fluorescence titration was measured using Perkin Elmer, LS55, and Luminescence spectrometer. The intrinsic binding of DIM-derivatives to DNA was performed separately by fluorescence measurements at an excitation wavelength of 335 nm, 265 nm and 338 nm and emission range of 350 to 450 nm, 300 to 450 nm and 380 to 540 nm for DPDIM, DMDIM and DMODIM, respectively. Excitation and emission slit widths were 5 nm and 7.5 nm; 5 nm and 15 nm; and 5 nm and 15 nm for DPDIM, DMDIM and DMODIM, respectively. Background emission (<2%) was corrected by subtraction of spectra of blank buffer, DNA plus sample buffer and compounds plus sample buffer, respectively. Spectral titration was performed with DIM derivatives at 25°C in fluorescence buffer (20 mM Tris-HCL, pH 7.5, 50 mM NaCl and 10 mM MgCl2). CT DNA was added in increasing concentrations (10 to 200 µM), which are indicated in the legend. All the assays were performed in duplicate, titration points are corrected as described above and binding constants for DIM DNA-compound interaction were determined according to following equation: [drawing 2] (Eq–1) where ΔF = Fx−Fo, Fx and Fo representing the florescence intensity of DIM derivatives in the presence or absence of the added total DNA (St), respectively. ΔFmax is the maximum change in the fluorescence intensity. The intercept of the plot on the 1/F axis corresponding to 1/St = 0 measures the 1/Fmax, while the slope gives the estimation of the affinity constant (Ka). The dissociation constant KD = 1/Ka.
Therefore, it was of interest to determine whether DIM derivatives could interact with DNA. Fluorescence quenching assay was performed to determine the interaction between the derivatives of DIM and DNA at different concentrations of DNA (10 to 200 µM). DPDIM has fluorescence emission maximum (λem ^max) at the wavelength of 390 nm with a λex of 335 nm, whereas DMDIM has fluorescence emission maximum at a wavelength of 379 nm with a λex of 265 nm and DMODIM has fluorescence emission maximum at a wavelength of 450 nm with a λex of 338 nm. The excitation and emission slit widths were set at 5 nm and 7.5 nm for DPDIM, 5 nm and 15 nm for DMDIM; and 5 nm and 15 nm for DMODIM. Appropriate blanks corresponding to the buffer were subtracted to correct the background fluorescence. The fluorescence intensity decreases by increasing the concentration of DNA due to quenching reaction. Addition of DNA causes a slight shift of the maximum peak (λ shift) from 390 nm to 386 nm for DPDIM and from 379 nm to 374 nm for DMDIM with a concomitant decrease in fluorescence intensity (Fig. 7A and B). There is no λ shift for DMODIM (Fig. 7C). A progressive change in the fluorescence spectra of three DIM-derivatives on addition of different concentrations of DNA indicated an association between them.
Figure 7 Fluorescence quenching study of DIM derivatives-DNA interaction. (A) CT DNA concentration-dependently quenched DPDIM fluorescence at 390 nm. (B) CT DNA concentration-dependently quenched DMDIM fluorescence at 379 nm. (C) CT DNA concentration-dependently quenched DMODIM fluorescence at 450 nm. The arrow of each figure indicates the change in the emission spectra of DPDIM, DMDIM and DMODIM respectively on addition of CT DNA.

[1] = test system: L. donovani AG83 amastigotes in Balb/c mouse peritoneal macrophages; assay: In vitro macrophage infection, clearance of intracellular amastigotes; assay type: cell-based, Leishmania donovani; details: 50 µM, 24 h, infected mouse macrophages
Source text: Balb/c mice, originally obtained from Jackson Laboratories, Bar Harbor, ME and reared in the institute animal facilities, were used for experimental purposes with prior approval of the animal ethics committee. Macrophages were isolated from mice 36 to 48 hr post injection (intraperitoneal) with 2% (w/v) hydrolyzed starch by peritoneal lavage with ice-cold phosphate-buffered saline. Cells were washed and cultured for 18–24 hr (for adherence) in RPMI 1640 (supplemented with 100 IU/ml of penicillin and […] of streptomycin) containing 10% (v/v) heat-inactivated FBS (RPMI-FBS) at 37°C with 5% CO2 in air on sterile cover glass (22 mm×22 mm) placed in disposable plates 35 mm in diameter (Tarsons India Ltd.). The culture medium was washed off and fresh RPMI-FBS was added. About 5×10^5 macrophages were maintained for proper distribution on cover glass. During the course of this study, macrophages were infected with promastigotes at a macrophage-to-parasite ratio of 1∶10 in RPMI-FBS for 6 hours to ensure entry of parasite. Following incubation, unphagocytosed parasites were removed by washing with medium, and cells were resuspended in RPMI-FBS at 37°C, 5% CO2 and then incubated for 6 hrs. Cultures were transferred to a CO2 incubator at 37°C and incubated for another 10–12 hr. Respective inhibitors were added at different concentrations (ranging from 5 µM to 50 µM) to infected macrophages and left for another 24 hr period. Cells were then fixed in methanol and stained with 2% Giemsa. Percentages of infected cells and total number of intracellular parasites were determined by manual counting in at least 200 cells using light microscope.
Primary macrophage cells were obtained from Balb/c mice peritoneal extrudates. After adherence and inactivation, these macrophage cells were infected with early passaged L. donovani AG83 promastigotes were infected to macrophages. After subsequent washing they were incubated with different concentrations (5, 10, 20 and 50 µM) of each of these inhibitors for 24 h (Fig. 3A). Macrophages were fixed and intracellular amastigotes were counted by Giemsa staining. […]
Figure 3 Effectiveness of clearance of internalized L. donovani (AG83) from in vitro infected mouse M [drawing 3] . […] Cells were fixed, stained with Giemsa and counted under bright field microscope. […] Experiments were carried out for three times and representative results are the mean ± S.D. (B) Growth of DIM resistant L. donovani axenic amastigotes were monitored in presence of increasing concentrations (2, 5, 10, 20 and 50 µM) of DIM, DPDIM, DMDIM and DMODIM for 12 h. […] Growth of the parasites treated with the compounds was expressed as percentage of the viable promastigotes compared with that of control. […]

SMILES	Kd (CT DNA)	efficiency of amastigote killing (clearance from macrophages) [1]	affinity to DNA less compared to DIM (CT DNA; versus DIM)	affinity to DNA greater compared to DIM (CT DNA; versus DIM mother compound)
Cc1[nH]c2ccccc2c1Cc1c(C)[nH]c2ccccc12 [DMDIM, 2,2′-dimethyl 3,3′-diindolyl methane]	63 µM	92%		
c1ccc2c(Cc3c[nH]c4ccccc34)c[nH]c2c1 [DIM, 3, 3′-diindolyl methane, reference compound]		91%		
COc1ccc2[nH]cc(Cc3c[nH]c4ccc(OC)cc34)c2c1 [DMODIM, 5,5′-dimethoxy 3,3′-diindolyl methane]	48 µM	about 85%	~2 fold	
c1ccc(-c2[nH]c3ccccc3c2Cc2c(-c3ccccc3)[nH]c3ccccc23)cc1 [DPDIM, 2,2′-diphenyl 3,3′-diindolyl methane]	11 µM	96%		2 fold

— paper PMC3236199, “Development of Derivatives of 3, 3′-Diindolylmethane as Potent Leishmania donovani Bi-Subunit Topoisomerase IB Poisons” (PLoS ONE, 2011)
